Assay [1] addresses T1, Dickkopf-related protein 1 (Homo sapiens) (UniProt O94907).
T1 sequence (whole entry): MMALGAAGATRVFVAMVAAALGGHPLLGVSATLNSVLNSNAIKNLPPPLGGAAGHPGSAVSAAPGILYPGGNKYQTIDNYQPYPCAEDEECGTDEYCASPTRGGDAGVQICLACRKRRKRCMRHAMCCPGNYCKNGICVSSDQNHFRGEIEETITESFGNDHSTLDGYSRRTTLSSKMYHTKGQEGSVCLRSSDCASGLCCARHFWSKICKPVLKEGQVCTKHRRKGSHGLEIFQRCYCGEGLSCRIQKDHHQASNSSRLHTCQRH
The experiment in a line: (§1) Inhibition of biotin-labeled human recombinant DKK1 assessed as reduction in DKK1 interaction with LRP-6/Fc incubated overnight by chemiluminescence based Alpha-screen assay. (In general: In Alpha technology, singlet oxygen from a donor bead excites a nearby acceptor bead.)

The target in assay [2] is T2, Dickkopf-related protein 1 (Homo sapiens, UniProt O94907).
T2 sequence (O94907 whole entry): T1 sequence (whole entry)
Kind of assay: Inhibition of human DKK1 in MC3T3E1/TetON-Wnt1/STF-Luc#5 cells assessed as DKK1 neutralizing activity by Wnt1-induced TCF/LEF luciferase reporter gene assay.

The target of assay [3] is T3, Dickkopf WNT-signaling pathway inhibitor 1 (Rattus norvegicus) (UniProt A6I0Z0).
T3 sequence (whole entry): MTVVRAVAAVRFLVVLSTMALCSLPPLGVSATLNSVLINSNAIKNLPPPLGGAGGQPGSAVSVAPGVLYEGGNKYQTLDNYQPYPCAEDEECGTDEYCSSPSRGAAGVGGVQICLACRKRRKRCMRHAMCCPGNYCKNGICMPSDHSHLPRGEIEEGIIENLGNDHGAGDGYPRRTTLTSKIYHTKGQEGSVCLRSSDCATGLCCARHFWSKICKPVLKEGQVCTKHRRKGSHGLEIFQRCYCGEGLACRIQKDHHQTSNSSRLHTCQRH
The experiment in a line: (§2) Inhibition of biotin-labeled rat recombinant DKK1 assessed as reduction in DKK1 interaction with LRP-6/Fc incubated overnight by chemiluminescence based Alpha-screen assay.

The target in assay [4] is T2, Dickkopf-related protein 1. Described as §1.
Assay [5] concerns the target T4, Dickkopf WNT-signaling pathway inhibitor 1 (Rattus norvegicus, UniProt A6I0Z0).
T4 sequence (A6I0Z0 whole entry): T3 sequence (whole entry)
The description is as §2.

Usually IC50 stands for the concentration needed to halve the response being measured.

Active and inactive are the calls of the source. The calls are words filed in the database; no cut-off is given here. Where a SMILES comes first, the peptide text is derived from it.

As to `CSCC[C@H](NC(=O)[C@@H]1CCCN1C(=O)[C@H](Cc1ccc(O)cc1)NC(=O)[C@H](CS)NC(=O)[C@H](Cc1cnc[nH]1)NC(=O)[C@@H]1CCCN1C(=O)[C@H](Cc1cnc[nH]1)NC(=O)[C@H](CC(N)=O)NC(=O)[C@H](CCCNC(=N)N)NC(=O)[C@H](CS)NC(=O)[C@H](CCCCN)NC(=O)[C@H](Cc1ccccc1)NC(=O)[C@H](Cc1ccc(O)cc1)NC(=O)[C@H](CO)NC(=O)[C@H](C)NC(=O)[C@@H]1CCCN1C(=O)[C@@H](N)CS)C(=O)N[C@@H](CCC(=O)O)C(=O)N[C@@H](Cc1c[nH]c2ccccc12)C(=O)N[C@@H](CCCNC(=N)N)C(=O)N[C@@H](CS)C(=O)N[C@@H](CC(=O)O)C(=O)NCC(=O)N[C@@H](Cc1ccccc1)C(=O)N[C@@H](C)C(=O)N[C@@H](CC(=O)O)C(=O)N[C@@H](CS)C(=O)N[C@H](C(=O)N[C@@H](CC(=O)O)C(=O)NCC(=O)N[C@@H](CO)C(=O)N[C@@H](CC(=O)O)C(=O)N[C@@H](CCC(=O)O)C(=O)N[C@@H](CC(C)C)C(=O)N[C@@H](CO)C(=O)N[C@@H](CS)C(=O)NCC(=O)NCC(=O)NCC(=O)NCC(=O)O)C(C)C` (H-CPASYFKCRNHPHCYPMEWRCDGFADCVDGSDELSCGGGG-OH), the inhibition result in assay [1] and in assay [3] was “Active” in each case. Besides, the IC50 in assay [2] was 0.8 to 3 nM.
As for `CC[C@H](C)[C@H](NC(=O)[C@H](CS)NC(=O)[C@H](CC(=O)O)NC(=O)[C@@H]1CCCN1C(=O)[C@H](Cc1ccccc1)NC(=O)CNC(=O)[C@H](CC(=O)O)NC(=O)[C@H](CS)NC(=O)[C@H](CCCNC(=N)N)NC(=O)[C@H](Cc1c[nH]c2ccccc12)NC(=O)[C@H](CCC(=O)O)NC(=O)[C@H](CCSC)NC(=O)[C@@H]1CCCN1C(=O)[C@H](Cc1ccc(O)cc1)NC(=O)[C@H](CS)NC(=O)[C@H](Cc1cnc[nH]1)NC(=O)[C@@H]1CCCN1C(=O)[C@H](Cc1cnc[nH]1)NC(=O)[C@H](CC(N)=O)NC(=O)[C@H](CCCNC(=N)N)NC(=O)[C@H](CS)NC(=O)[C@@H]1CCCN1C(=O)[C@H](Cc1ccccc1)NC(=O)[C@H](Cc1ccc(O)cc1)NC(=O)[C@@H](NC(=O)[C@H](C)NC(=O)[C@@H]1CCCN1C(=O)[C@@H](N)CS)[C@@H](C)O)C(=O)N[C@@H](CC(=O)O)C(=O)N[C@@H](CCC(=O)O)C(=O)N[C@@H](CO)C(=O)N[C@@H](CC(=O)O)C(=O)N[C@@H](CCC(=O)O)C(=O)N[C@@H](CCSC)C(=O)NCC(=O)N[C@@H](CS)C(=O)NCC(=O)NCC(=O)NCC(=O)NCC(=O)O` (H-CPATYFPCRNHPHCYPMEWRCDGFPDCIDESDEMGCGGGG-OH), the inhibition result in assay [1] and in assay [3] was “Active” throughout. In addition, the IC50 in assay [2] was 0.8 to 3 nM.
Consider `CC[C@H](C)[C@H](NC(=O)[C@H](CCCCN)NC(=O)[C@H](CC(=O)O)NC(=O)[C@H](C)NC(=O)[C@H](CS)NC(=O)[C@H](CCSC)NC(=O)[C@H](Cc1ccccc1)NC(=O)[C@H](CCC(=O)O)NC(=O)[C@H](CC(N)=O)NC(=O)[C@H](CO)NC(=O)[C@@H]1CCCN1C(=O)[C@@H](N)CS)C(=O)N[C@@H](CS)C(=O)N[C@@H](Cc1ccccc1)C(=O)N1CCC[C@H]1C(=O)N[C@@H](CC(C)C)C(=O)N[C@@H](CO)C(=O)N[C@@H](Cc1ccccc1)C(=O)N[C@@H](CC(C)C)C(=O)N[C@@H](CS)C(=O)N[C@@H](CC(=O)O)C(=O)NCC(=O)N[C@@H](CCC(=O)O)C(=O)N[C@@H](CC(N)=O)C(=O)N[C@@H](CC(=O)O)C(=O)N[C@@H](CS)C(=O)N[C@@H](CC(C)C)C(=O)N[C@@H](CC(=O)O)C(=O)NCC(=O)N[C@@H](CO)C(=O)N[C@@H](CC(=O)O)C(=O)N[C@@H](CCC(=O)O)C(=O)N[C@@H](CC(=O)O)C(=O)N[C@@H](Cc1ccc(O)cc1)C(=O)N[C@@H](CS)C(=O)N1CCC[C@H]1C(=O)N[C@@H](CO)C(=O)N[C@@H](CCCNC(=N)N)C(=O)N[C@H](C(=O)O)[C@@H](C)O` (H-CPSNEFMCADKICFPLSFLCDGENDCLDGSDEDYCPSRT-OH), for which the IC50 in assay [4] and in assay [5] was at most 1 nM each time.
With `CSCC[C@H](NC(=O)[C@@H]1CCCN1C(=O)[C@H](Cc1ccc(O)cc1)NC(=O)[C@H](CS)NC(=O)[C@H](Cc1cnc[nH]1)NC(=O)[C@@H]1CCCN1C(=O)[C@H](Cc1cnc[nH]1)NC(=O)[C@H](CO)NC(=O)CNC(=O)[C@H](CS)NC(=O)[C@H](CCC(N)=O)NC(=O)[C@H](Cc1ccccc1)NC(=O)[C@H](Cc1ccc(O)cc1)NC(=O)[C@H](CO)NC(=O)[C@H](C)NC(=O)[C@@H]1CCCN1C(=O)[C@@H](N)CS)C(=O)N[C@@H](CCC(=O)O)C(=O)N[C@@H](Cc1c[nH]c2ccccc12)C(=O)N[C@@H](CCCNC(=N)N)C(=O)N[C@@H](CS)C(=O)N[C@@H](CC(=O)O)C(=O)NCC(=O)N[C@@H](Cc1ccccc1)C(=O)N[C@@H](CCC(N)=O)C(=O)N[C@@H](CC(=O)O)C(=O)N[C@@H](CS)C(=O)N[C@@H](CCC(=O)O)C(=O)N[C@@H](CC(=O)O)C(=O)NCC(=O)N[C@@H](CO)C(=O)N[C@@H](CC(=O)O)C(=O)N[C@@H](CCC(=O)O)C(=O)N[C@@H](CC(C)C)C(=O)NCC(=O)N[C@@H](CS)C(=O)N1CCC[C@H]1C(=O)N[C@@H](Cc1ccc(O)cc1)C(=O)N[C@@H](CCCNC(=N)N)C(=O)N[C@H](C(=O)O)[C@@H](C)O` (H-CPASYFQCGSHPHCYPMEWRCDGFQDCEDGSDELGCPYRT-OH), the IC50 in assay [4] and in assay [5] was at most 1 nM throughout.
Turning to `CSCC[C@H](NC(=O)[C@@H]1CCCN1C(=O)[C@H](Cc1ccc(O)cc1)NC(=O)[C@H](CS)NC(=O)[C@H](Cc1cnc[nH]1)NC(=O)[C@H](CC(N)=O)NC(=O)[C@H](Cc1ccc(O)cc1)NC(=O)[C@H](CC(N)=O)NC(=O)[C@H](CCCNC(=N)N)NC(=O)[C@H](CS)NC(=O)[C@H](CCC(N)=O)NC(=O)[C@H](Cc1ccccc1)NC(=O)[C@H](Cc1ccc(O)cc1)NC(=O)[C@H](CO)NC(=O)[C@H](C)NC(=O)[C@@H]1CCCN1C(=O)[C@@H](N)CS)C(=O)N[C@@H](CCC(=O)O)C(=O)N[C@@H](Cc1c[nH]c2ccccc12)C(=O)N[C@@H](CCCNC(=N)N)C(=O)N[C@@H](CS)C(=O)N[C@@H](CC(=O)O)C(=O)NCC(=O)N[C@@H](Cc1ccccc1)C(=O)N[C@@H](CCC(=O)O)C(=O)N[C@@H](CC(=O)O)C(=O)N[C@@H](CS)C(=O)N[C@@H](CC(C)C)C(=O)N[C@@H](CC(=O)O)C(=O)NCC(=O)N[C@@H](CO)C(=O)N[C@@H](CC(=O)O)C(=O)N[C@@H](CCC(=O)O)C(=O)N[C@H](C(=O)N[C@@H](CC(=O)O)C(=O)N[C@@H](CS)C(=O)N1CCC[C@H]1C(=O)N[C@@H](Cc1ccc(O)cc1)C(=O)N[C@@H](CCCNC(=N)N)C(=O)N[C@H](C(=O)O)[C@@H](C)O)[C@@H](C)O` (H-CPASYFQCRNYNHCYPMEWRCDGFEDCLDGSDETDCPYRT-OH), the IC50 in assay [4] and in assay [5] was at most 1 nM each time.
For `CSCC[C@H](NC(=O)[C@@H]1CCCN1C(=O)[C@H](Cc1ccc(O)cc1)NC(=O)[C@H](CS)NC(=O)[C@H](Cc1cnc[nH]1)NC(=O)[C@H](CC(N)=O)NC(=O)[C@H](CCCNC(=N)N)NC(=O)[C@H](CC(N)=O)NC(=O)[C@H](CCCNC(=N)N)NC(=O)[C@H](CS)NC(=O)[C@H](CCCNC(=N)N)NC(=O)[C@H](Cc1ccccc1)NC(=O)[C@H](Cc1ccc(O)cc1)NC(=O)[C@H](CO)NC(=O)[C@H](C)NC(=O)[C@@H]1CCCN1C(=O)[C@@H](N)CS)C(=O)N[C@@H](CCC(=O)O)C(=O)N[C@@H](Cc1c[nH]c2ccccc12)C(=O)N[C@@H](CCCNC(=N)N)C(=O)N[C@@H](CS)C(=O)N[C@@H](CC(=O)O)C(=O)NCC(=O)N[C@@H](Cc1ccccc1)C(=O)N1CCC[C@H]1C(=O)N[C@@H](CC(=O)O)C(=O)N[C@@H](CS)C(=O)N[C@@H](CCC(=O)O)C(=O)N[C@@H](CC(=O)O)C(=O)N[C@@H](C)C(=O)N[C@@H](CO)C(=O)N[C@@H](CC(=O)O)C(=O)N[C@@H](CCC(=O)O)C(=O)N[C@@H](CCCCN)C(=O)NCC(=O)N[C@@H](CS)C(=O)N1CCC[C@H]1C(=O)N[C@@H](Cc1ccc(O)cc1)C(=O)N[C@@H](CCCNC(=N)N)C(=O)N[C@H](C(=O)O)[C@@H](C)O` (H-CPASYFRCRNRNHCYPMEWRCDGFPDCEDASDEKGCPYRT-OH), the IC50 in assay [4] and in assay [5] was at most 1 nM each time.
For the compound `CSCC[C@H](NC(=O)[C@@H]1CCCN1C(=O)[C@H](Cc1ccc(O)cc1)NC(=O)[C@H](CS)NC(=O)[C@H](Cc1cnc[nH]1)NC(=O)[C@H](CC(N)=O)NC(=O)[C@H](CC(C)C)NC(=O)[C@H](Cc1cnc[nH]1)NC(=O)[C@H](CCCNC(=N)N)NC(=O)[C@H](CS)NC(=O)[C@H](CCCNC(=N)N)NC(=O)[C@H](Cc1ccccc1)NC(=O)[C@H](Cc1ccc(O)cc1)NC(=O)[C@H](CO)NC(=O)[C@@H](NC(=O)[C@@H]1CCCN1C(=O)[C@@H](N)CS)C(C)C)C(=O)N[C@@H](CCC(=O)O)C(=O)N[C@@H](Cc1c[nH]c2ccccc12)C(=O)N[C@@H](CCCNC(=N)N)C(=O)N[C@@H](CS)C(=O)N[C@@H](CC(=O)O)C(=O)NCC(=O)N[C@@H](Cc1ccccc1)C(=O)N[C@@H](CC(C)C)C(=O)N[C@@H](CC(=O)O)C(=O)N[C@@H](CS)C(=O)N[C@H](C(=O)N[C@@H](CC(=O)O)C(=O)NCC(=O)N[C@@H](CO)C(=O)N[C@@H](CC(=O)O)C(=O)N[C@@H](CCC(=O)O)C(=O)N[C@@H](CCC(=O)O)C(=O)NCC(=O)N[C@@H](CS)C(=O)N1CCC[C@H]1C(=O)N[C@@H](Cc1ccc(O)cc1)C(=O)N[C@@H](CCCNC(=N)N)C(=O)N[C@H](C(=O)O)[C@@H](C)O)C(C)C` (H-CPVSYFRCRHLNHCYPMEWRCDGFLDCVDGSDEEGCPYRT-OH), the IC50 in assay [4] and in assay [5] was at most 1 nM in each case.
